In this assay the test system is NCIH929.1 cells. Briefly: Cell viability assay for Table 2 (CellTiter-Glo 2.0, ATP quantification, 96 hr). The assay is classed as cell-based. To be noted: NCIH929.1 cell viability, 96 hr, top concentration 1 μM, 14 points half log titration, read-out: IC50. An excerpt: Cell Viability Assay for Table 2
CellTiter-Glo® 2.0 Assay was purchased from Promega (Madison, Wis., USA). NCIH929.1 cell line was purchased from ATCC (Manassas, Va., USA). Cell culture flasks and 384-well microplates were acquired from VWR (Radnor, Pa., USA).
(In general: Cellular ATP, detected with luciferase, serves as a proxy for viable cell number.)

Where two headings read alike, the source gives them in different places.

Consider `O=C1CCC(N2C(=O)c3cccc4c(Cc5ccc(CN6CCOCC6)cc5)ccc2c34)C(=O)N1` (single isomer, unassigned) [Compound 220, 3-(6-(4-(morpholinomethyl)benzyl)-2-oxobenzo[cd]indol-1(2H)-yl)piperidine-2,6-dione], for which the IC50 (usually the concentration needed to halve the response being measured) (96 h) is under 1 nM.

Regarding `CC1(CN2CCC(n3cc(Cc4ccc5c6c(cccc46)C(=O)N5C4CCC(=O)NC4=O)cn3)CC2)CC1` (single isomer, unassigned) [Compound 234, 3-[6-[[1-[1-[(1-methylcyclopropyl)methyl]-4-piperidyl]pyrazol-4-yl]methyl]-2-oxo-benzo[cd]indol-1-yl]piperidine-2,6-dione], under “96 h”, the half-maximal inhibitory concentration (IC50) is under 1 nM.

Regarding `CC1(CN2CCC(n3cc(Cc4ccc5c6c(cccc46)C(=O)N5C4CCC(=O)NC4=O)cn3)CC2)CC1` (single isomer, unassigned) [Compound 235, 3-[6-[[1-[1-[(1-methylcyclopropyl)methyl]-4-piperidyl]pyrazol-4-yl]methyl]-2-oxo-benzo[cd]indol-1-yl]piperidine-2,6-dione], the IC50 is under 1 nM.

For the compound `CC1(CN2CCC(n3cc(Cc4ccc5c6c(cccc46)C(=O)N5C4CCC(=O)NC4=O)cn3)CC2)CCC1` (single isomer, unassigned) [Compound 236, 3-[6-[[1-[1-[(1-methylcyclobutyl)methyl]-4-piperidyl]pyrazol-4-yl]methyl]-2-oxo-benzo[cd]indol-1-yl]piperidine-2,6-dione], the IC50 (96 h) is under 1 nM.

For the compound `CC1(CN2CCC(n3cc(Cc4ccc5c6c(cccc46)C(=O)N5C4CCC(=O)NC4=O)cn3)CC2)CCC1` (single isomer, unassigned) [Compound 237, 3-[6-[[1-[1-[(1-methylcyclobutyl)methyl]-4-piperidyl]pyrazol-4-yl]methyl]-2-oxo-benzo[cd]indol-1-yl]piperidine-2,6-dione], the IC50 was under 1 nM.

For the compound `CC1(n2cc(Cc3ccc4c5c(cccc35)C(=O)N4C3CCC(=O)NC3=O)cn2)CCN(C(=O)C23COC(C2)C3)CC1` (single isomer, unassigned) [Compound 238, 3-[6-[[1-[4-methyl-1-(2-oxabicyclo[2.1.1]hexane-4-carbonyl)-4-piperidyl]pyrazol-4-yl]methyl]-2-oxo-benzo[cd]indol-1-yl]piperidine-2,6-dione], the IC50 (96 h) is under 1 nM.

`CC1(n2cc(Cc3ccc4c5c(cccc35)C(=O)N4C3CCC(=O)NC3=O)cn2)CCN(C(=O)C23COC(C2)C3)CC1` (single isomer, unassigned) [Compound 239, 3-[6-[[1-[4-methyl-1-(2-oxabicyclo[2.1.1]hexane-4-carbonyl)-4-piperidyl]pyrazol-4-yl]methyl]-2-oxo-benzo[cd]indol-1-yl]piperidine-2,6-dione]: the half-maximal inhibitory concentration (IC50) is under 1 nM.

For `O=C1CCC(N2C(=O)c3cccc4c(Cc5cnn(C6CCN(C7CCC78CCC8)CC6)c5)ccc2c34)C(=O)N1` (single isomer, unassigned) [Compound 244, 3-{2-Oxo-6-[1-(1-spiro[3.3]hept-1-yl-piperidin-4-yl)-1H-pyrazol-4-ylmethyl]-2H-benzo[cd]indol-1-yl}-piperidine-2,6-dione], the IC50 (96 h) was under 1 nM.

In the case of `O=C1CCC(N2C(=O)c3cccc4c(Cc5cnn(C6CCN(C7CCC78CCC8)CC6)c5)ccc2c34)C(=O)N1` (single isomer, unassigned) [Compound 245, 3-{2-Oxo-6-[1-(1-spiro[3.3]hept-1-yl-piperidin-4-yl)-1H-pyrazol-4-ylmethyl]-2H-benzo[cd]indol-1-yl}-piperidine-2,6-dione], the IC50 was under 1 nM.

As to `O=C1CCC(N2C(=O)c3cccc4c(Cc5ccc(CN6CCN(c7ccc(Cl)cc7F)CC6)cc5)ccc2c34)C(=O)N1` (single isomer, unassigned) [Compound 254, 3-[6-[[4-[[4-(4-chloro-2-fluoro-phenyl)piperazin-1-yl]methyl]phenyl]methyl]-2-oxo-benzo[cd]indol-1-yl]-piperidine-2,6-dione], the IC50 (96 h) is under 1 nM.

As to `O=C1CCC(N2C(=O)c3cccc4c(Cc5ccc(CN6CCN(c7ccc(Cl)cc7F)CC6)cc5)ccc2c34)C(=O)N1` (single isomer, unassigned) [Compound 255, 3-[6-[[4-[[4-(4-chloro-2-fluoro-phenyl)piperazin-1-yl]methyl]phenyl]methyl]-2-oxo-benzo[cd]indol-1-yl]piperidine-2,6-dione], the IC50 was under 1 nM.

Consider `O=C1CCC(N2C(=O)c3cccc4c(Cc5ccc(CN6CCN(c7ccc(F)cc7F)CC6)cc5)ccc2c34)C(=O)N1` (single isomer, unassigned) [Compound 256, 3-(6-(4-((4-(2,4-difluorophenyl)piperazin-1-yl)methyl)benzyl)-2-oxobenzo[cd]indol-1(2H)-yl)piperidine-2,6-dione], for which the IC50 (96 h) is under 1 nM.

Consider `O=C1CCC(N2C(=O)c3cccc4c(Cc5ccc(CN6CCN(c7ccc(F)cc7F)CC6)cc5)ccc2c34)C(=O)N1` (single isomer, unassigned) [Compound 257, 3-(6-(4-((4-(2,4-difluorophenyl)piperazin-1-yl)methyl)benzyl)-2-oxobenzo[cd]indol-1(2H)-yl)piperidine-2,6-dione], for which the IC50 is under 1 nM.

As for `CC1(CN2CCC(n3cc(Cc4ccc5c6c(cccc46)C(=O)N5C4CCC(=O)NC4=O)cn3)CC23CC3)CCC1` (single isomer, unassigned) [Compound 274, 3-[6-[[1-[4-[(1-methylcyclobutyl)methyl]-4-azaspiro[2.5]octan-7-yl]pyrazol-4-yl]methyl]-2-oxo-benzo[cd]indol-1-yl]piperidine-2,6-dione], under “96 h”, the IC50 is under 1 nM.

`CC(C1CCC1)N1CCC(n2cc(Cc3ccc4c5c(cccc35)C(=O)N4C3CCC(=O)NC3=O)cn2)CC1` (single isomer, unassigned) [Compound 280, 3-[6-[[1-[1-[1-cyclobutylethyl]-4-piperidyl]pyrazol-4-yl]methyl]-2-oxo-benzo[cd]indol-1-yl]piperidine-2,6-dione]: the IC50 (96 h) was under 1 nM.

With `CC(C1CCC1)N1CCC(n2cc(Cc3ccc4c5c(cccc35)C(=O)N4C3CCC(=O)NC3=O)cn2)CC1` (single isomer, unassigned) [Compound 281, 3-[6-[[1-[1-[1-cyclobutylethyl]-4-piperidyl]pyrazol-4-yl]methyl]-2-oxo-benzo[cd]indol-1-yl]piperidine-2,6-dione], the IC50 was under 1 nM.

With `CC(C1CC1)N1CCC(n2cc(Cc3ccc4c5c(cccc35)C(=O)N4C3CCC(=O)NC3=O)cn2)CC1` (single isomer, unassigned) [Compound 282, 3-(6-((1-(1-(1-cyclopropylethyl)piperidin-4-yl)-1H-pyrazol-4-yl)methyl)-2-oxobenzo[cd]indol-1(2H)-yl)piperidine-2,6-dione], the IC50 (96 h) is under 1 nM.

`CC(C1CC1)N1CCC(n2cc(Cc3ccc4c5c(cccc35)C(=O)N4C3CCC(=O)NC3=O)cn2)CC1` (single isomer, unassigned) [Compound 283, 3-(6-((1-(1-(1-cyclopropylethyl)piperidin-4-yl)-1H-pyrazol-4-yl)methyl)-2-oxobenzo[cd]indol-1(2H)-yl)piperidine-2,6-dione]: the IC50 is under 1 nM.

Take `CC(c1ccc(Cc2ccc3c4c(cccc24)C(=O)N3C2CCC(=O)NC2=O)cc1)N1CCN(c2ccccc2F)CC1` (single isomer, unassigned) [Compound 284, 3-[6-[[4-[1-[4-(2-fluorophenyl)piperazin-1-yl]ethyl]phenyl]methyl]-2-oxo-benzo[cd]indol-1-yl]piperidine-2,6-dione]: the IC50 (96 h) was under 1 nM.

(Values after US20230082430A1 (C4 Therapeutics, Inc., priority 2019, published 2023).)
